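Test compounds were applied to cells in 96-well plates for 48 hours at 5 doses. Abbreviation: GI50, concentration required for 50% inhibition of growth.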 Active and inactive are the calls of the source. Rule as the data show it: active = GI50 up to about 1.1 µM and inactive = higher.
Key:
Assay in all cases: inhibition of tumour cell growth, NCI panel, 48 h
RPMI-8226 = system: RPMI-8226
Malme-3M = system: Malme-3M
SK-MEL-2 = system: SK-MEL-2
HCT-116 = system: HCT-116
SK-OV-3 = system: SK-OV-3
OVCAR-5 = system: OVCAR-5
UO-31 = system: UO-31
K562 = system: K562
Hs-578T = system: Hs-578T
MCF7 = system: MCF7
RXF 393 = system: RXF 393
SW-620 = system: SW-620
OVCAR-8 = system: OVCAR-8
SK-MEL-5 = system: SK-MEL-5
EKVX = system: EKVX
UACC-257 = system: UACC-257
HOP-92 = system: HOP-92
DMS-114 = system: DMS-114
DLD-1 = system: DLD-1
SNB-78 = system: SNB-78

## CCOC(=O)N1CCN(C(=O)Nc2cccc3ccccc23)CC1
RPMI-8226
  GI50: > 10 µM (inactive)
Malme-3M
  GI50: > 10 µM (inactive)
SK-MEL-2
  GI50: > 10 µM (inactive)
HCT-116
  GI50: > 10 µM (inactive)
SK-OV-3
  GI50: > 10 µM (inactive)
OVCAR-5
  GI50: > 10 µM (inactive)
UO-31
  GI50: > 10 µM (inactive)
K562
  GI50: > 10 µM (inactive)
Hs-578T
  GI50: > 10 µM (inactive)
MCF7
  GI50: > 10 µM (inactive)
RXF 393
  GI50: > 10 µM (inactive)
SW-620
  GI50: > 10 µM (inactive)
OVCAR-8
  GI50: > 10 µM (inactive)
SK-MEL-5
  GI50: > 10 µM (inactive)
EKVX
  GI50: > 10 µM (inactive)

## OCC(CO)CC1COc2ccccc2O1 (configuration not stated)
RPMI-8226
  GI50: > 10 µM (inactive)
Malme-3M
  GI50: > 10 µM (inactive)
SK-MEL-2
  GI50: > 10 µM (inactive)
HCT-116
  GI50: > 10 µM (inactive)
SK-OV-3
  GI50: > 10 µM (inactive)
OVCAR-5
  GI50: > 10 µM (inactive)
UO-31
  GI50: > 10 µM (inactive)
K562
  GI50: > 10 µM (inactive)
Hs-578T
  GI50: > 10 µM (inactive)
MCF7
  GI50: > 10 µM (inactive)
RXF 393
  GI50: > 10 µM (inactive)
SW-620
  GI50: > 10 µM (inactive)
OVCAR-8
  GI50: > 10 µM (inactive)
SK-MEL-5
  GI50: > 10 µM (inactive)
EKVX
  GI50: > 10 µM (inactive)

## O=C1C2=C(C3=NCCc4c[nH]c1c43)C1(C=C(Br)C(O)C(Br)=C1)CCN2 (configuration not stated)
RPMI-8226
  GI50: 1.9 µM (inactive)
UACC-257
  GI50: 0.614 µM (active)
SK-MEL-2
  GI50: 3.2 µM (inactive)
HOP-92
  GI50: 2.92 µM (inactive)
HCT-116
  GI50: 0.625 µM (active)
DMS-114
  GI50: 0.202 µM (active)
SK-OV-3
  GI50: 13.3 µM (inactive)
OVCAR-5
  GI50: 2.65 µM (inactive)
DLD-1
  GI50: 1.67 µM (inactive)
UO-31
  GI50: 11.1 µM (inactive)
K562
  GI50: 2.3 µM (inactive)
MCF7
  GI50: 0.433 µM (active)
RXF 393
  GI50: 2.56 µM (inactive)
SW-620
  GI50: 0.541 µM (active)
SNB-78
  GI50: 2.79 µM (inactive)
OVCAR-8
  GI50: 0.647 µM (active)
SK-MEL-5
  GI50: 1.07 µM (active)
EKVX
  GI50: 1.07 µM (active)

## CC(C)C1OC(=O)/C=C/C=C/C=C/C=C/C=C/CC(O)C(C)C(O)CC(O)CC(O)CC(O)CC(O)CC(O)CC(O)/C=C/C1C (configuration not stated)
RPMI-8226
  GI50: > 100 µM (inactive)
UACC-257
  GI50: > 100 µM (inactive)
Malme-3M
  GI50: 70.5 µM (inactive)
SK-MEL-2
  GI50: > 100 µM (inactive)
HOP-92
  GI50: > 100 µM (inactive)
SK-OV-3
  GI50: > 100 µM (inactive)
OVCAR-5
  GI50: > 100 µM (inactive)
UO-31
  GI50: > 100 µM (inactive)
K562
  GI50: > 100 µM (inactive)
Hs-578T
  GI50: > 100 µM (inactive)
MCF7
  GI50: > 100 µM (inactive)
SW-620
  GI50: > 100 µM (inactive)
OVCAR-8
  GI50: > 100 µM (inactive)
EKVX
  GI50: > 100 µM (inactive)

## CNC(=O)SCC(NC(=O)CCC(N)C(=O)O)C(=O)NCC(=O)O (configuration not stated)
RPMI-8226
  GI50: 42.3 µM (inactive)
UACC-257
  GI50: > 100 µM (inactive)
Malme-3M
  GI50: > 65.5 µM (inactive)
SK-MEL-2
  GI50: > 85.7 µM (inactive)
HOP-92
  GI50: > 68.4 µM (inactive)
HCT-116
  GI50: > 84.7 µM (inactive)
DMS-114
  GI50: 39 µM (inactive)
SK-OV-3
  GI50: > 100 µM (inactive)
OVCAR-5
  GI50: > 100 µM (inactive)
DLD-1
  GI50: > 83 µM (inactive)
UO-31
  GI50: > 100 µM (inactive)
K562
  GI50: 34.8 µM (inactive)
MCF7
  GI50: > 100 µM (inactive)
RXF 393
  GI50: > 100 µM (inactive)
SW-620
  GI50: > 100 µM (inactive)
SNB-78
  GI50: > 100 µM (inactive)
OVCAR-8
  GI50: > 100 µM (inactive)
SK-MEL-5
  GI50: > 100 µM (inactive)
EKVX
  GI50: 75 µM (inactive)

## CC(C)=CCc1c(C)cc2cc3c(c(O)c2c1O)C(=O)C=C(O)C3(CC=C(C)C)C/C=C(\C)CO (configuration not stated)
RPMI-8226
  GI50: 20.7 µM (inactive)
UACC-257
  GI50: 43.7 µM (inactive)
Malme-3M
  GI50: 32.3 µM (inactive)
SK-MEL-2
  GI50: 13 µM (inactive)
HOP-92
  GI50: 33.2 µM (inactive)
HCT-116
  GI50: 37 µM (inactive)
DMS-114
  GI50: 38.9 µM (inactive)
SK-OV-3
  GI50: 36.7 µM (inactive)
OVCAR-5
  GI50: 48.2 µM (inactive)
DLD-1
  GI50: 32.7 µM (inactive)
UO-31
  GI50: 29 µM (inactive)
K562
  GI50: 23.3 µM (inactive)
MCF7
  GI50: 42.7 µM (inactive)
RXF 393
  GI50: 29 µM (inactive)
SW-620
  GI50: 39.8 µM (inactive)
OVCAR-8
  GI50: 28.8 µM (inactive)
SK-MEL-5
  GI50: 16.4 µM (inactive)
EKVX
  GI50: 35.7 µM (inactive)

## CCOC(=O)C1(C(=O)OCC)CSC1
UACC-257
  GI50: > 100 µM (inactive)
HOP-92
  GI50: > 100 µM (inactive)
HCT-116
  GI50: > 100 µM (inactive)
SK-OV-3
  GI50: > 100 µM (inactive)
UO-31
  GI50: > 100 µM (inactive)
K562
  GI50: > 100 µM (inactive)
Hs-578T
  GI50: > 100 µM (inactive)
MCF7
  GI50: > 100 µM (inactive)
RXF 393
  GI50: > 100 µM (inactive)
SW-620
  GI50: > 100 µM (inactive)
OVCAR-8
  GI50: > 100 µM (inactive)
SK-MEL-5
  GI50: > 100 µM (inactive)

## CC(=O)OC/C=C\Cn1nc(Br)c(=O)[nH]c1=O
RPMI-8226
  GI50: 25.9 µM (inactive)
UACC-257
  GI50: 15.5 µM (inactive)
Malme-3M
  GI50: 14.3 µM (inactive)
SK-MEL-2
  GI50: 13.1 µM (inactive)
HOP-92
  GI50: 13 µM (inactive)
OVCAR-5
  GI50: 17.9 µM (inactive)
UO-31
  GI50: 16.4 µM (inactive)
K562
  GI50: 9.33 µM (inactive)
Hs-578T
  GI50: 21.5 µM (inactive)
MCF7
  GI50: 11.5 µM (inactive)
RXF 393
  GI50: 10.6 µM (inactive)
SW-620
  GI50: 14.3 µM (inactive)
OVCAR-8
  GI50: 14.9 µM (inactive)
SK-MEL-5
  GI50: 14.6 µM (inactive)
EKVX
  GI50: 17.4 µM (inactive)

## O=C1c2ccccc2C(=O)N1CC(CN1C(=O)c2ccccc2C1=O)(C(=O)OCc1ccccc1)C(=O)OCc1ccccc1
RPMI-8226
  GI50: > 100 µM (inactive)
Malme-3M
  GI50: > 100 µM (inactive)
SK-MEL-2
  GI50: > 100 µM (inactive)
HOP-92
  GI50: > 100 µM (inactive)
HCT-116
  GI50: > 100 µM (inactive)
SK-OV-3
  GI50: > 100 µM (inactive)
OVCAR-5
  GI50: > 100 µM (inactive)
UO-31
  GI50: > 100 µM (inactive)
Hs-578T
  GI50: > 100 µM (inactive)
RXF 393
  GI50: 14.4 µM (inactive)
OVCAR-8
  GI50: > 100 µM (inactive)
SK-MEL-5
  GI50: > 100 µM (inactive)

## C=CCN1C(=O)/C(=C/c2cccs2)N=C1SC1OC(COC(=O)c2ccccc2)C(OC(=O)c2ccccc2)C1OC(=O)c1ccccc1 (configuration not stated)
RPMI-8226
  GI50: 22.4 µM (inactive)
UACC-257
  GI50: > 100 µM (inactive)
Malme-3M
  GI50: > 100 µM (inactive)
SK-MEL-2
  GI50: > 100 µM (inactive)
HOP-92
  GI50: > 100 µM (inactive)
SK-OV-3
  GI50: > 100 µM (inactive)
OVCAR-5
  GI50: > 100 µM (inactive)
K562
  GI50: > 100 µM (inactive)
MCF7
  GI50: 36.6 µM (inactive)
RXF 393
  GI50: > 100 µM (inactive)
SW-620
  GI50: > 100 µM (inactive)
OVCAR-8
  GI50: > 100 µM (inactive)
SK-MEL-5
  GI50: > 100 µM (inactive)
EKVX
  GI50: > 100 µM (inactive)

## NC(=O)Nc1ccc(C(=O)NCCCNC(=O)c2ccc(NC(N)=O)cc2)cc1
RPMI-8226
  GI50: > 100 µM (inactive)
UACC-257
  GI50: > 100 µM (inactive)
Malme-3M
  GI50: > 100 µM (inactive)
SK-MEL-2
  GI50: > 100 µM (inactive)
HOP-92
  GI50: > 100 µM (inactive)
HCT-116
  GI50: > 100 µM (inactive)
OVCAR-5
  GI50: > 100 µM (inactive)
UO-31
  GI50: > 100 µM (inactive)
K562
  GI50: > 100 µM (inactive)
Hs-578T
  GI50: > 100 µM (inactive)
MCF7
  GI50: > 100 µM (inactive)
RXF 393
  GI50: > 100 µM (inactive)
SW-620
  GI50: > 100 µM (inactive)
OVCAR-8
  GI50: > 100 µM (inactive)
SK-MEL-5
  GI50: > 100 µM (inactive)
EKVX
  GI50: > 100 µM (inactive)

## O=C1C=C(N2CC2)C(=O)C=C1N1CC1
RPMI-8226
  GI50: 0.227 µM (active)
UACC-257
  GI50: 0.265 µM (active)
Malme-3M
  GI50: 0.107 µM (active)
SK-MEL-2
  GI50: 0.12 µM (active)
HOP-92
  GI50: 0.44 µM (active)
SK-OV-3
  GI50: 0.522 µM (active)
OVCAR-5
  GI50: 0.646 µM (active)
DLD-1
  GI50: 0.117 µM (active)
UO-31
  GI50: 0.104 µM (active)
Hs-578T
  GI50: 2.39 µM (inactive)
RXF 393
  GI50: 0.0634 µM (active)
SW-620
  GI50: 0.0891 µM (active)
SNB-78
  GI50: 0.138 µM (active)
SK-MEL-5
  GI50: 0.101 µM (active)
